Data reported in patent US8680137B2, “Agents and methods for treating ischemic and other diseases” (Nono Inc., priority 2009, dated 2014).
Entries after “also recorded” stand apart in the source; their conditions may differ. Like-named read-outs stand apart in the source and are kept apart here.

Columns and labels:
[1] = test system: B16F10 melanoma cells; experiment: Cancer cell proliferation, B16F10; type: cell-based, mouse; settings: for proliferation: B16F10, FIG. 81; for Demonstrated Reduction of Proliferation at or below 10 μM Inhibitor concentration: B16F10, >20% inhibition at 48-96 hours, MTT, SRB, luminescence or BrDU; for IC50: Mus musculus
Description: (§1) To determine the breadth of efficacy in cancers, we examined the efficacy of a range of TRPM7 inhibitors for their ability to inhibit cell proliferation in cancer cell lines. Representative figures are included as examples.
(§2) Cells (Table 1) were grown to 70% confluency, trypsinized, counted, and seeded in 96-well flat-bottom plates at a final concentration of 2.5×10^3-5.0×10^3 cells/well in growth media containing 5% FBS (Day 0). Other well sizes and cell densities were used successfully as well. Cells were allowed to incubate in growth media for 24 hours to allow for maximum adhesion. Treatment with the test agent began on Day 1 and continued for 72 hours either with or without retreatment. At the 72 hour time point, viable cell numbers are quantified by the CellTiter-Glo® cell viability assay as described above, or using standard MTT, SRB or BrDU assays. Experiments were repeated at least twice with the same concentrations to determine growth inhibitory activity.
(§3) Data Collection—For the cell proliferation studies, data from each experiment was collected and expressed as % Cell Growth using the following calculation: % Cell Growth=(ftest/fvehicle)×100 Where ftest is the luminescent signal of the tested sample, and fvehicle is the luminescence of the vehicle in which the drug is dissolved (or appropriate measure for the other viability/proliferation measures). Dose response graphs and IC50 values were generated using standard software using the following variable slope equation: […]

[2] = test system: MDA-MB231 breast cancer cells; experiment: Cancer cell proliferation, MDA-MB231; type: cell-based; settings: MDA-MB231, FIG. 80
Description: as §1, §2
as §3, with “measures).” for “measures). Dose response graphs and IC50 values were generated using standard software using the following variable slope equation:”

[3] = test system: MCF-7 breast cancer cells; experiment: Cancer cell proliferation, MCF-7; type: cell-based; settings: for proliferation: MCF-7, FIG. 80; for Demonstrated Reduction of Proliferation at or below 10 μM Inhibitor concentration: MCF-7, >20% inhibition at 48-96 hours, MTT, SRB, luminescence or BrDU
Description: as §1, §2, §3

[4] = test system: DMS53 Lung cancer; experiment: Cancer cell proliferation, DMS53; type: cell-based; settings: >20% inhibition at 48-96 hours, MTT, SRB, luminescence or BrDU
Description: as §1, §2
as §3, with “measures).” for “measures). Dose response graphs and IC50 values were generated using standard software using the following variable slope equation:”

[5] = test system: RXF-393 renal; experiment: Cancer cell proliferation, RXF-393; type: cell-based, human; settings: for IC50: Homo sapiens
Description: as §1, §2, §3

[6] = test system: B16F1 melanoma cells; experiment: Cancer cell proliferation, B16F1; type: cell-based, mouse; settings: B16F1, FIG. 81
Description: as §1, §2
as §3, with “measures).” for “measures). Dose response graphs and IC50 values were generated using standard software using the following variable slope equation:”

[7] = test system: retinal ganglion cells (RGCs); experiment: OGD in cultured primary retinal ganglion cells, PI fluorescence; type: cell-based, rat; settings: 5 μM, 24 hours after 3 hour OGD
Text: Acute and chronic retinal ischemia are major causes of blindness. Retinal damage from glaucoma, also termed “slow excitotoxicity” afflicts millions of people each year and is the second leading cause of blindness worldwide (after cataracts). Diabetic retinopathy is also very common, afflicting about 40% of diabetics and, while less commonly producing complete blindness, is a leading cause of visual impairment. The retina is an extension of the CNS, and was the first organ in which excitotoxicity was described. This invention discloses TPRM7 antagonists that can inhibit anoxic retinal damage. To examine this, we cultured primary retinal ganglion cells (RGCs) and organotypic whole retinas from neonatal rat pups by standard methods and exposed them to OGD (1 or 3 hours). […] This underscores our earlier discussion that inhibiting TRPM7 is a ubiquitous mechanism for the reduction of ischemic damage.

[8] = test system: U2OS osteosarcoma; experiment: Cancer cell proliferation, U2OS; type: cell-based; settings: >20% inhibition at 48-96 hours, MTT, SRB, luminescence or BrDU
Description: as §1, §2
as §3, with “measures).” for “measures). Dose response graphs and IC50 values were generated using standard software using the following variable slope equation:”

[9] = test system: NIH3T3 fibroblasts; experiment: Toxicity on NIH3T3 fibroblast cells, PI uptake after 72 hours; type: cell-based; settings: concentrations that reduce proliferation of cancerous cells
Description: To differentiate between an anti-proliferative effect of the TRPM7 inhibitors and cellular toxicity, the compounds were added to various ‘non-cancerous’ cell lines at the same concentrations and the percentage of PI uptake was measured after 72 hours.

[10] = test system: voltage-sensitive Na+ currents; experiment: Voltage-sensitive Na+ currents in cultured cortical neurons; type: cell-based; settings: at concentrations sufficient to inhibit TRPM7
Description: (§4) To examine selectivity of a subset of these TRPM7 inhibitors, experiments were performed to determine whether TRPM7 antagonists cross-react with other ionic channels and receptors. […] From a therapeutic perspective, knowledge of cross-reactivity of candidate drugs could shed light on other ischemic mechanisms and raise awareness of potential side effects. M21 has no effect on voltage-sensitive Na+, and Ca2+ currents in cultured cortical neurons […] TRPM7-expressing HEK293 cells, but inhibits K+ currents by about 20% at membrane potentials of −10 mV. M21 had no effect on agonist-induced Ca2+ changes in HEK293 cells transfected with constructs for TRPM2, TRPM4, TRPM6, TRPV1, TRPC2 and TRPA1. M21 also has no effect on NMDA and AMPA receptor currents in cultured neurons. […] Similar experiments were performed with other TRPM7 inhibitors including M5 and M11.

[11] = test system: voltage-sensitive Ca2+ currents; experiment: Voltage-sensitive Ca2+ currents in cultured cortical neurons; type: cell-based; settings: at concentrations sufficient to inhibit TRPM7
Description: as §4

[12] = test system: mixed retinal cell cultures; experiment: OGD in dissociated mixed rat retinal cultures; type: cell-based
Description: The ability of TRPM7 inhibitors to protect other types of cell cultures following exposure to anoxia, including non-neuronal cell cultures, has also been tested. In general, cultures of growing cells are exposed to a 1-6 hour period of anoxia, followed by addition of a TRPM7 at a range of concentrations upon removal from anoxic conditions. […] This implies that TRPM7 inhibitors may be useful both as a treatment for anoxic damage to patients presenting symptoms of a disorder associated with anoxic damage, or as a preventative measure. Such preventative measures can be chronic, such as treatment to protect against damage from heart attacks or strokes, or acute, to be given prior to or during surgical procedures, which may include but not be limited to procedures that involve endovascular invasion and have the possibility of dislodging material that may block blood flow through arteries. […]

[13] = test system: K+ currents; experiment: K+ currents in cultured cortical neurons; type: cell-based
Description: as §4

[14] = molecular target: T1, TRPV1 (Homo sapiens, UniProt Q8NER1); experiment: Agonist-induced Ca2+ changes in HEK293 cells transfected with TRPV1; type: cell-based
T1 construct: expressed in transfected cells; host or cells: HEK293
Description: as §4

T1 sequence (Q8NER1 whole entry, species assumed): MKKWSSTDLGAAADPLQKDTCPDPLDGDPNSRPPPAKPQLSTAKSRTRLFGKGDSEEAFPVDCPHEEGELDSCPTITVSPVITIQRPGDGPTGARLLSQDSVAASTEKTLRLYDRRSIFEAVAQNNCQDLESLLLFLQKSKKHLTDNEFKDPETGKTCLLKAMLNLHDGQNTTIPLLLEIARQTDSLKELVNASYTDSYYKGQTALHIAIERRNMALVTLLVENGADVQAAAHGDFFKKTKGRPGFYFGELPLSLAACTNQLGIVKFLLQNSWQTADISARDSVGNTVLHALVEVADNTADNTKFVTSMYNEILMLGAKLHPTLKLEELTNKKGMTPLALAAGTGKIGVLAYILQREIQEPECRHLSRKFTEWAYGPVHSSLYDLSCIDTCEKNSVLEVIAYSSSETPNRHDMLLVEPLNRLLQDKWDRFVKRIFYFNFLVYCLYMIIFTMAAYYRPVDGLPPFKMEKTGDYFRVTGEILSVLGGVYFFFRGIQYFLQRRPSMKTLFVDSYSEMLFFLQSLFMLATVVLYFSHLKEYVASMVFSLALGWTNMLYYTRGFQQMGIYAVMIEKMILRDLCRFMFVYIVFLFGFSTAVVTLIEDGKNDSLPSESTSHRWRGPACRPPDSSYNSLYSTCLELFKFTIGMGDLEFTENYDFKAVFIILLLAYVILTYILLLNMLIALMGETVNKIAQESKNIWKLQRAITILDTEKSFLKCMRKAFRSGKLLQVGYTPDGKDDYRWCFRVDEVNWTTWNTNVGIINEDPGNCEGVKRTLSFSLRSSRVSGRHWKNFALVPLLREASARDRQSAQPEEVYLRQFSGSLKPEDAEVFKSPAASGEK

SMILES	proliferation [1]	Demonstrated Reduction of Proliferation at or below 10 μM Inhibitor concentration [1]	proliferation [2]	proliferation [3]	Demonstrated Reduction of Proliferation at or below 10 μM Inhibitor concentration [3]	Demonstrated Reduction of Proliferation at or below 10 μM Inhibitor concentration [4]	proliferation [6]	cytoprotection after OGD compared with U0126 or NA-1 [7]	Demonstrated Reduction of Proliferation at or below 10 μM Inhibitor concentration [8]	toxicity (PI uptake) [9]	effect on voltage-sensitive Na+ currents [10]	effect on voltage-sensitive Ca2+ currents [11]	survival following exposure to OGD [12]	other results
COc1cc2c(cc1OC)C(c1sc3ccccc3c1Cl)=NCC2 [Compound M6]	reduce the proliferation	B16F10 melanoma	reduce proliferation	reduce proliferation	MCF-7	DMS53 Lung cancer	reduce the proliferation	more protective	U2OS osteosarcoma	not toxic; also recorded: do not show toxicity				IC50 ([1]; B16-F10, 72 h, B16-F10, Exp 1, 72 hours, read-out: IC50): 16.5 µM; IC50 ([1]; B16-F10, 72 h, B16-F10, Exp 2, 72 hours, read-out: IC50): 14.3 µM; IC50 ([1]; B16-F10, B16-F10, mean of Exp 1 and Exp 2, read-out: Mean IC50): 15.6 µM; IC50 ([5]; RXF 393, 72 h, RXF393, Exp 1, 72 hours, read-out: IC50): 5.3 µM; IC50 ([5]; RXF 393, 72 h, RXF393, Exp 2, 72 hours, read-out: IC50): 8.1 µM; IC50 ([5]; RXF 393, RXF393, mean of Exp 1 and Exp 2, read-out: Mean IC50): 6.7 µM; Demonstrated Reduction of Proliferation at or below 10 μM Inhibitor concentration ([5]; RXF-393, >20% inhibition at 48-96 hours, MTT, SRB, luminescence or BrDU): RXF-393 renal
O=C(Nc1ccc(F)cc1)C(Sc1ccc(Cl)cc1)c1ccccc1 (stereo not drawn) [Compound M11]	reduce the proliferation	B16F10 melanoma	reduce proliferation	reduce proliferation	MCF-7	DMS53 Lung cancer	reduce the proliferation		U2OS osteosarcoma	do not show toxicity	did not affect	did not affect	promote survival	effect on potassium currents [13]: slight inhibition
Cc1c(Cc2ccc(Cl)c(Cl)c2)c(=O)oc2cc(O)ccc12 [Compound M21]								more protective			no effect	no effect	promote survival	effect on agonist-induced Ca2+ changes [14]: no effect; inhibition of K+ currents ([13]; membrane potentials of −10 mV): about 20%
